Source: patent US12692254B2, “Benzimidazole inhibitors of PAD enzymes” (BRISTOL-MYERS SQUIBB COMPANY, priority 2018, dated 2026)
pIC50: −log10 of the molar value.

molecular target: human PAD4 (hPAD4) (Homo sapiens, UniProt Q9UM07); assay: RFMS human PAD4 functional assay (rapid-fire mass spectrum); type: biochemical; conditions: 5 nM hPAD4 enzyme, 250 μM BAEE, 50 μM Calcium; 30 min preincubation, 90 min reaction at 37° C.
Outline: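 PAD4 (10 nM) preincubated 30 min with compound (top final 50 μM), then BAEE substrate added in pH 7.5 HEPES buffer with DTT, 50 μM calcium, TPEN; 90 min at 37° C. After TCA quench, citrulline derivatized with phenyl glyoxal (4 mM final, 30 min, 37° C) and quantified by RapidFire MS against internal standard.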

Chain of human PAD4 (hPAD4) (Q9UM07 whole entry): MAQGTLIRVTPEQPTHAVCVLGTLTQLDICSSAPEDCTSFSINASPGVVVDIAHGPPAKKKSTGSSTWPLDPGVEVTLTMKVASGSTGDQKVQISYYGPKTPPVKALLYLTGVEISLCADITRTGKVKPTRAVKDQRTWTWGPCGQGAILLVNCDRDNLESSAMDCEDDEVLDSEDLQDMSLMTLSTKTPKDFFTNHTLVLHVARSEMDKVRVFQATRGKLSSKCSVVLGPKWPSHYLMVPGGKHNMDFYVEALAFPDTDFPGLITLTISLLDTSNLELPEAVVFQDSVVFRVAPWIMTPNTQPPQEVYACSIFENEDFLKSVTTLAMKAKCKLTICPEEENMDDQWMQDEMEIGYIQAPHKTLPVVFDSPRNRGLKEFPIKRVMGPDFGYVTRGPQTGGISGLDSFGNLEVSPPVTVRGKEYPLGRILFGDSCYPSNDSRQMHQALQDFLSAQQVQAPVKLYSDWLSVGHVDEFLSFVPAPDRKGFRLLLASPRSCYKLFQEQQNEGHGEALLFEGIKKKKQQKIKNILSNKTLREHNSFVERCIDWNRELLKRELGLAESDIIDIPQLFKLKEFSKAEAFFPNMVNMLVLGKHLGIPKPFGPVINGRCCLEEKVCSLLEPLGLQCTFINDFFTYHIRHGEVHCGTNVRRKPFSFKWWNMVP

pIC50	SMILES
7.33	COc1cc(C(=O)N2C[C@H](N)C[C@@H](F)C2)cc2nc(-c3cc4cccnc4n3CC3CC3)n(Cc3cnn(-c4cncc(C#N)c4)c3)c12 [Example 391, 5-[4-({5-[(3R,5R)-3-amino-5-fluoropiperidine-1-carbonyl]-2-[1-(cyclopropylmethyl)-1H-pyrrolo[2,3-b]pyridin-2-yl]-7-methoxy-1H-1,3-benzodiazol-1-yl}methyl)-1H-pyrazol-1-yl]pyridine-3-carbonitrile]
7.32	COc1cc(C(=O)N2CC3CCC2[C@@H]3N)cc2nc(-c3cc4ccccc4n3CC3CC3)n(Cc3cnn(-c4cc(Cl)ccn4)c3)c12 (stereo partly drawn) [Example 392, (7R)-2-(1-{[1-(4-chloropyridin-2-yl)-1H-pyrazol-4-yl]methyl}-2-[1-(cyclopropylmethyl)-1H-indol-2-yl]-7-methoxy-1H-1,3-benzodiazole-5-carbonyl)-2-azabicyclo[2.2.1]heptan-7-amine]
7.31	COc1cc(C(=O)N2C[C@H](N)C[C@@H](F)C2)cc2nc(-c3cc4cccnc4n3CC3CC3)n(Cc3cnn(-c4ncc(F)cc4F)c3)c12 [Example 393, (3R,5R)-1-{2-[1-(cyclopropylmethyl)-1H-pyrrolo[2,3-b]pyridin-2-yl]-1-{[1-(3,5-difluoropyridin-2-yl)-1H-pyrazol-4-yl]methyl}-7-methoxy-1H-1,3-benzodiazole-5-carbonyl}-5-fluoropiperidin-3-amine]
7.30	COc1cc(C(=O)N2CC3CCC2[C@@H]3N)cc2nc(-c3cc4ccccc4n3CC3CC3)n(Cc3cnn(-c4cnc(C#N)c(F)c4)c3)c12 (stereo partly drawn) [Example 394, 5-[4-({5-[(7R)-7-amino-2-azabicyclo[2.2.1]heptane-2-carbonyl]-2-[1-(cyclopropyimethyl)-1H-indol-2-yl]-7-methoxy-1H-1,3-benzodiazol-1-yl}methyl)-1H-pyrazol-1-yl]-3-fluoropyridine-2-carbonitrile]
7.30	COc1cc(C(=O)N2CC3CCC2[C@@H]3N)cc2nc(-c3cc4cccnc4n3CC3CC3)n(Cc3cnn(-c4cccnc4)c3)c12 (stereo partly drawn) [Example 395, (7R)-2-{2-[1-(cyclopropylmethyl)-1H-pyrrolo[2,3-b]pyridin-2-yl]-7-methoxy-1-{[1-(pyridin-3-yl)-1H-pyrazol-4-yl]methyl}-1H-1,3-benzodiazole-5-carbonyl}-2-azabicyclo[2.2.1]heptan-7-amine]
7.29	COc1cc(C(=O)N2CC3CCC2[C@@H]3N)cc2nc(-c3cc4ccccc4n3CC3CC3)n(Cc3cnn(-c4ccc[n+]([O-])c4)c3)c12 (stereo partly drawn) [Example 396, 3-[4-({5-[(7R)-7-amino-2-azabicyclo[2.2.1]heptane-2-carbonyl]-2-[1-(cyclopropylmethyl)-1H-indol-2-yl]-7-methoxy-1H-1,3-benzodiazol-1-yl}methyl)-1H-pyrazol-1-yl]pyridin-1-ium-1-olate]
7.28	COc1cc(C(=O)N2C[C@H](N)C[C@@H](F)C2)cc2nc(-c3cc4cccnc4n3CC3CC3)n(Cc3cnn(-c4cnccn4)c3)c12 [Example 397, (3R,5R)-1-{2-[1-(cyclopropylmethyl)-1H-pyrrolo[2,3-b]pyridin-2-yl]-7-methoxy-1-{[1-(pyrazin-2-yl)-1H-pyrazol-4-yl]methyl}-1H-1,3-benzodiazole-5-carbonyl}-5-fluoropiperidin-3-amine]
7.27	COc1cc(C(=O)N2CC3CCC2[C@@H]3N)cc2nc(-c3cc4cccnc4n3CC3CC3)n(Cc3cnn(-c4ncccn4)c3)c12 (stereo partly drawn) [Example 398, (7R)-2-{2-[1-(cyclopropylmethyl)-1H-pyrrolo[2,3-b]pyridin-2-yl]-7-methoxy-1-{[1-(pyrimidin-2-yl)-1H-pyrazol-4-yl]methyl}-1H-1,3-benzodiazole-5-carbonyl}-2-azabicyclo[2.2.1]heptan-7-amine]
7.24	COc1cc(C(=O)N2CC3CCC2[C@@H]3N)cc2nc(-c3cc4ccccc4n3CC3CC3)n(Cc3cnn(-c4ccc(O)nc4)c3)c12 (stereo partly drawn) [Example 399, 5-[4-({5-[(7R)-7-amino-2-azabicyclo[2.2.1]heptane-2-carbonyl]-2-[1-(cyclopropylmethyl)-1H-indol-2-yl]-7-methoxy-1H-1,3-benzodiazol-1-yl}methyl)-1H-pyrazol-1-yl]pyridin-2-ol]
7.24	COc1cc(C(=O)N2CC3CCC2[C@@H]3N)cc2nc(-c3cc4cccnc4n3CC3CC3)n(Cc3cnn(-c4ccccn4)c3)c12 (stereo partly drawn) [Example 400, (7R)-2-{2-[1-(cyclopropylmethyl)-1H-pyrrolo[2,3-b]pyridin-2-yl]-7-methoxy-1-{[1-(pyridin-2-yl)-1H-pyrazol-4-yl]methyl}-1H-1,3-benzodiazole-5-carbonyl)-2-azabicyclo[2.2.1]heptan-7-amine]
7.23	COc1cc(C(=O)N2C[C@H](N)C[C@@H](F)C2)cc2nc(-c3cc4cccnc4n3CC3CC3)n(Cc3cnn(-c4ncccn4)c3)c12 [Example 401, (3R,5R)-1-{2-[1-(cyclopropylmethyl)-1H-pyrrolo[2,3-b]pyridin-2-yl]-7-methoxy-1-{[1-(pyrimidin-2-yl)-1H-pyrazol-4-yl]methyl}-1H-1,3-benzodiazole-5-carbonyl}-5-fluoropiperidin-3-amine]
7.18	COc1cc(C(=O)N2CC3CCC2[C@@H]3N)cc2nc(-c3cc4ccccc4n3CC3CC3)n(Cc3cnn(-c4ncccn4)c3)c12 (stereo partly drawn) [Example 402, (7R)-2-{2-[1-(cyclopropylmethyl)-1H-indol-2-yl]-7-methoxy-1-{[1-(pyrimidin-2-yl)-1H-pyrazol-4-yl]methyl}-1H-1,3-benzodiazole-5-carbonyl}-2-azabicyclo[2.2.1]heptan-7-amine]
7.18	COc1ncccc1-n1cc(Cn2c(-c3cc4ccccc4n3CC3CC3)nc3cc(C(=O)N4CC5CCC4[C@@H]5N)cc(OC)c32)cn1 (stereo partly drawn) [Example 403, (7R)-2-{2-[1-(cyclopropylmethyl)-1H-indol-2-yl]-7-methoxy-1-{[1-(2-methoxypyridin-3-yl)-1H-pyrazol-4-yl]methyl}-1H-1,3-benzodiazole-5-carbonyl)-2-azabicyclo[2.2.1]heptan-7-amine]
7.18	COc1cc(C(=O)N2CC3CCC2[C@@H]3N)cc2nc(-c3cc4ccccc4n3CC3CC3)n(Cc3cnn(-c4ccc(C)cn4)c3)c12 (stereo partly drawn) [Example 404, (7R)-2-{2-[1-(cyclopropylmethyl)-1H-indol-2-yl]-7-methoxy-1-{[1-(5-methylpyridin-2-yl)-1H-pyrazol-4-yl]methyl)-1H-1,3-benzodiazole-5-carbonyl}-2-azabicyclo[2.2.1]heptan-7-amine]
7.18	COc1cc(C(=O)N2CC3CCC2[C@@H]3N)cc2nc(-c3cc4ccccc4n3CC3CC3)n(Cc3cnn(CC#N)c3)c12 (stereo partly drawn) [Example 405, 2-[4-({5-[(7R)-7-amino-2-azabicyclo[2.2.1]heptane-2-carbonyl]-2-[1-(cyclopropylmethyl)-1H-indol-2-yl]-7-methoxy-1H-1,3-benzodiazol-1-yl}methyl)-1H-pyrazol-1-yl]acetonitrile]
7.16	COc1cc(C(=O)N2C[C@H](N)C[C@@H](F)C2)cc2nc(-c3cc4cccnc4n3CC3CC3)n(Cc3cnn(-c4cncc(F)c4)c3)c12 [Example 406, (3R,5R)-1-{2-[1-(cyclopropylmethyl)-1H-pyrrolo[2,3-b]pyridin-2-yl]-1-{[1-(5-fluoropyridin-3-yl)-1H-pyrazol-4-yl]methyl}-7-methoxy-1H-1,3-benzodiazole-5-carbonyl}-5-fluoropiperidin-3-amine]
7.14	COc1cc(C(=O)N2C[C@H](N)C[C@@H](F)C2)cc2nc(-c3cc4cccnc4n3CC3CC3)n(Cc3cnn(-c4cccc(O)n4)c3)c12 [Example 407, 6-[4-({5-[(3R,5R)-3-amino-5-fluoropipendine-1-carbonyl]-2-[1-(cyelopropylmethyl)-1H-pyrrolo[2,3-b]pyridin-2-yl]-7-methoxy-1H-1,3-benzodiazol-1-yl}methyl)-1H-pyrazol-1-yl]pyridin-2-ol]
7.13	COc1cc(C(=O)N2CC3CCC2[C@@H]3N)cc2nc(-c3cc4cccnc4n3CC3CC3)n(Cc3cnn(-c4cncnc4)c3)c12 (stereo partly drawn) [Example 408, (7R)-2-{2-[1-(cyclopropylmethyl)-1H-pyrrolo[2,3-b]pyridin-2-yl]-7-methoxy-1-{[1-(pyrimidin-5-yl)-1H-pyrazol-4-yl]methyl}-1H-1,3-benzodiazole-5-carbonyl}-2-azabicyclo[2.2.1]heptan-7-amine]
7.09	COc1cc(C(=O)N2CC3CCC2[C@@H]3N)cc2nc(-c3cc4cccnc4n3CC3CC3)n(Cc3cnn(-c4ccncc4)c3)c12 (stereo partly drawn) [Example 409, (7R)-2-{2-[1-(cyclopropylmethyl)-1H-pyrrolo[2,3-b]pyridin-2-yl]-7-methoxy-1-{[1-(pyridin-4-yl)-1H-pyrazol-4-yl]methyl}-1H-1,3-benzodiazole-5-carbonyl)-2-azabicyclo[2.2.1]heptan-7-amine]
7.06	COc1ncc(-n2cc(Cn3c(-c4cc5ccccc5n4CC4CC4)nc4cc(C(=O)N5CC6CCC5[C@@H]6N)cc(OC)c43)cn2)cc1F (stereo partly drawn) [Example 410, (7R)-2-{2-[1-(cyclopropylmethyl)-1H-indol-2-yl]-1-{[1-(5-fluoro-6-methoxypyridin-3-yl)-1H-pyrazol-4-yl]methyl}-7-methoxy-1H-1,3-benzodiazole-5-carbonyl}-2-azabicyclo[2.2.1]heptan-7-amine]
7.26	COC(=O)Cn1cc(Cn2c(-c3cc4cccnc4n3CC3CC3)nc3cc(C(=O)N4CC5CCC4[C@@H]5N)cc(OC)c32)cn1 (stereo partly drawn) [Example 411, methyl 2-[4-({5-[(7R)-7-amino-2-azabicyclo[2.2.1]heptane-2-carbonyl]-2-[1-(cyclopropylmethyl)-1H-pyrrolo[2,3-b]pyridin-2-yl]-7-methoxy-1H-1,3-benzodiazol-1-yl}methyl)-1H-pyrazol-1-yl]acetate]
7.74	CNc1cc(C(=O)N2CC(Cn3c(-c4cc5ccccc5n4CC4CC4)nc4cc(C(=O)N5CC6CCC5[C@@H]6N)cc(OC)c43)C2)ccn1 (stereo partly drawn) [Example 412, (7R)-2-{2-[1-(cyclopropylmethyl)-1H-indol-2-yl]-7-methoxy-1-({1-[2-(methylamino)pyridine-4-carbonyl]azetidin-3-yl}methyl)-1H-1,3-benzodiazole-5-carbonyl}-2-azabicyclo[2.2.1]heptan-7-amine]
